Where no end group is shown, it is not given here.
Experiments:
CAC [1] = experiment: Expansion (S phase) of CAC recovered from treated subjects, cultured with IL-3; type: in vivo, human; conditions: cells from treated diabetic patients cultured with IL-3; FIG. 3C
Protocol: Peripheral-blood mononuclear cells (PB-MNC) isolated by Fycoll Histopaque 1077 (Sigma) were resuspended in 20% FBS 199 Medium and plated on fibronectin-coated dishes (Biocoat, Becton Dickinson Labware) as described by Hill et al. (Ref. 19). Human UAG studies were performed on CAC recovered from normal donors and diabetic patients. The purity of sorted cells was assessed by FACS analysis (Ref. 20). For experiments, the isolated CAC were cultured under 5% CO2 at 37° C. for 4 days on 20 μg/ml fibronectin-coated dishes in EGM-2 medium containing 10% FBS, hydrocortisone, human Fibroblast Growth Factor, Vascular Endothelial Growth Factor, Insulin Growth Factor 1, ascorbic acid, human Epidermal Growth Factor, gentamicin and amphotericin-B (Cambrex, Walkersville, Md., USA) alone or in combination with 1 μM UAG and 1.2 mg/ml AGE. In selected experiments, isolated CAC were cultured in EBM-2 medium (Cambrex, Walkersville, Md., USA) supplemented with 10 ng/ml of IL-3. […]
Flow Cytometry—To analyze CAC cell-cycle progression, cells recovered from diabetic, healthy subjects, NOD/SCID, ob/ob and wt mice, were cultured in EBM-2 supplemented with IL-3 (10 ng/ml), FACS analysis was performed as previously described (Ref. 20). Cell surface molecules were evaluated by flow cytometry as previously described (Ref. 24). Frequency of marker-positive cells is expressed as mean±standard deviation (SD).

CAC [2] = experiment: Senescence of CAC recovered from type 2 diabetic patients treated with UAG; design: species or system human; conditions: 12 hours of treatment in vivo, FIG. 2D
Protocol: All the subjects underwent the following testing session: • UAG (3.0 μg/kg/h iv. as infusion for 12 h from 0 to 12 hours); • isotonic saline (infusion from 0 to 12 hours).
All tests were performed starting at 08.30-09.00 a.m. after overnight fasting, 30 minutes after an indwelling catheter had been placed into a forearm vein by slow infusion of isotonic saline. Blood samples were taken at 0 h, 6 h and 12 h.
CAC Senescence—Senescence was evaluated by acidic β-gal activity on CAC recovered from normal subjects cultured in EGM2 medium for 4 days with UAG or AGE+UAG and saline- or UAG-treated diabetic patients (Ref. 22). Briefly, CAC were washed in phosphate-buffered saline, fixed for 3 min at room temperature in 2% paraformaldehyde, washed, and incubated for24 h at 37° C. with fresh SA-β-gal stain solution: 1 mg/ml 5-bromo-4-chloro-3-indolyl β-D-galactopyranoside (X-gal), 5 mM/liter potassium ferrocyanide, 5 mM/liter ferricyanide, 150 mM/liter NaCl, 2 mM/liter MgCl2, 0.01% sodium deoxycholate, and 0.02% Nonidet P-40. SA-β-gal-positive cells were counted manually by 3 independent investigators.

CAC [3] = experiment: CAC mobilization assay in diabetic and control mice; type: in vivo; conditions: FIG. 4B
Protocol: Diabetic and control mice—Mice were divided in four groups. The plasma glucose and insulin determination for each group are reported. Sixteen 6 weeks old ob/ob mice (blood glucose, 600±45 mg/dL, insulin, 5.5±0.9 ng/ml); sixteen C56BL6/J wild type mice (blood glucose, 150±18.2 mg/dL, insulin, 1±0.05 ng/ml); ten 7 weeks old NOD/SCID mice (blood glucose, 164±12.9 mg/dL, insulin 1.2±0.12 ng/ml); ten 17 weeks old NOD/SCID mice (blood glucose, 536±36.3 mg/dL, insulin 4.85±0.74 ng/ml). Animal procedures conformed to the Guide for Care and Use of […] (National Institutes of Health publication no. 93-23, revised 1985).
Isolation and Culture of CAC from C57BU6J, C57BL/6J ob/ob mice and NOD/SCID mice—6 weeks old C57BL/6J (wt) and ob/ob mice, 7 and 17 weeks old NOD/SCID mice were purchased from Charles River Lab (Lecco, Italy). Animals were anesthetized by intraperitoneal injection with Avertin (100 mg/50ml ip). Blood samples were drawn from left ventricular, as described by Hoff (Ref. 27). Peripheral blood MNC were isolated by Ficoll density-gradient centrifugation. […]
Mobilization assay—Mice were treated for 12 hours with UAG or saline. CAC recovered and purified as above described, were put in culture and counted by three independent investigators. The technical ratio of CAC was calculated by comparing the numbers of CAC/μL of blood drawn from left ventricular.

CAC [4] = experiment: Matrigel-plug assay of de novo vessel formation by CAC from treated diabetic patients; type: in vivo, SCID mice
Protocol: Matrigel-plug assay—For murine angiogenesis assay, untreated or UAG-treated CAC, obtained from type 2 diabetic patients, were counted and resuspended in DMEM (4×10^6 in 250 μL DMEM). Cells were chilled in ice, labelled with fluorescent dye carboxyfluorescein diacetate succinimidyl ester (CSFE, Molecular Probes), added to 250 μL Matrigel containing of IL-3 (100 ng/ml) at 4° C., and injected sc. in the abdominal paramedian region of 7 week old NOD/SCID mice (5 mice per group). After 15 days, mice were killed and Matrigel plugs were recovered, fixed in 10% buffered formalin and embedded in paraffin for immunohistochemistry.
Immunohistochemistry and immunofluorescence—For immunohistochemistry, sections from paraffin-embedded blocks of Matrigel plugs were collected onto poly-lysine-coated slides. Endogenous peroxidase activity was blocked with 6% H2O2 for 8 minutes at room temperature. To detect cells labelled with fluorescent dye CSFE, anti-Fluorescein/Oregon Green polyclonal Abs (Molecular Probes) were applied to slides overnight at 4° C. […] The percentage of positive cells was counted in 4 non-sequential sections for each experiment at ×40 magnification. […] The number of MHC II or HLA I positive vessels was determined by counting 10 randomly selected fields in three different samples.

CAC [5] = experiment: CAC senescence (acidic β-gal activity), cultured CAC; type: cell-based, human; conditions: FIG. 2A
Protocol: Peripheral-blood mononuclear cells (PB-MNC) isolated by Fycoll Histopaque 1077 (Sigma) were resuspended in 20% FBS 199 Medium and plated on fibronectin-coated dishes (Biocoat, Becton Dickinson Labware) as described by Hill et al. (Ref. 19). Human UAG studies were performed on CAC recovered from normal donors and diabetic patients. The purity of sorted cells was assessed by FACS analysis (Ref. 20). For experiments, the isolated CAC were cultured under 5% CO2 at 37° C. for 4 days on 20 μg/ml fibronectin-coated dishes in EGM-2 medium containing 10% FBS, hydrocortisone, human Fibroblast Growth Factor, Vascular Endothelial Growth Factor, Insulin Growth Factor 1, ascorbic acid, human Epidermal Growth Factor, gentamicin and amphotericin-B (Cambrex, Walkersville, Md., USA) alone or in combination with 1 μM UAG and 1.2 mg/ml AGE. In selected experiments, isolated CAC were cultured in EBM-2 medium (Cambrex, Walkersville, Md., USA) supplemented with 10 ng/ml of IL-3. FACS was used to analyze their phenotype (anti-CD45, anti-CD31, anti-CD105, anti-CD14 antibodies were used) (Ref. 22).
CAC Senescence—Senescence was evaluated by acidic β-gal activity on CAC recovered from normal subjects cultured in EGM2 medium for 4 days with UAG or AGE+UAG and saline- or UAG-treated diabetic patients (Ref. 22). […] SA-β-gal-positive cells were counted manually by 3 independent investigators.

1-NH2Gly-Ser-Ser-Phe-Leu-Ser-Pro-Glu-His-Gln-Arg-Val-Gln-Gln-Arg-Lys-Glu-Ser-Lys-Lys-Pro-Pro-Ala-Lys-Leu-Gln-Pro-Arg-28 (GSSFLSPEHQRVQQRKESKKPPAKLQPR; ends and bridges not checked; listed as Homo sapiens) [UAG]
cell expansion of recovered cells (S phase) (CAC [1]): underwent cell expansion
number of senescent cells (CAC [2]): reduced the number of senescent cells
percentage of recovered cells (CAC [3]; diabetic NOD/SCID mice): increase the percentage of recovered cells
number of recovered cells relative to untreated wild type mice (CAC [3]; ob/ob mice): fully restores the number of CAC to normal physiological levels
formation of functional vessels by labelled CAC (CAC [4]; CAC from UAG-treated diabetic patients, Matrigel plugs with IL-3, 15 days, FIG. 4E): formed functional vessels
origin of neo-vessels (human HLA Class I vs mouse MHC II) (CAC [4]; immunofluorescence of Matrigel plugs, FIG. 4F): majority of vessels are lined by human HLA Class I positive cells
number of senescent cells (SA-β-gal activity) (CAC [5]; CAC cultured with UAG alone): reduce the number of senescent cells
number of SA-β-gal positive cells (CAC [5]; UAG added to AGE-cultured CAC): significant reduction in the number of SA-β-gal positive cells
